Assay results reported in patent publication US20110178053A1, “AZACARBOLINE DERIVATIVES, PREPARATION METHOD THEREOF AND THERAPEUTIC USE OF SAME” (SANOFI-AVENTIS, priority 2008, published 2011).

How the values were obtained:
Assay type in all cases: biochemical
[1] = molecular target: T1, Pim-3 (Homo sapiens, UniProt Q86V86); test: TR-FRET assay, Pim-3 kinase (phosphorylation of Bad Ser112); conditions: TR-FRET; ATP 40 μM; read-out: IC50 Pim3
T1 construct: His6-labelled recombinant full-length human Pim-1, Pim-2 or Pim-3 protein; His6; made in house
Procedure: (§1) In order to determine the inhibition of activation of Pim kinases, the compounds of the invention are tested in accordance with a routinely used in vitro TR-FRET assay (Time-Resolved Fluorescence Resonance Energy Transfer). […] For the assay, the following reagents are used:
(§2) Pim kinase—His6-labelled recombinant full-length human Pim-1, Pim-2 or Pim-3 protein (prepared according to J. Mol. Biol. (2005) 348, 183-193); Bad—His6-labelled recombinant full-length human Bad protein (prepared according to J. Mol. Biol. (2005) 348, 183-193); α-His6-APC—murine monoclonal antibody conjugated to allophycocyanin SureLight™ directed against the His6 label (Perkin-Elmer, No. AD0059H, Waltham, Mass., United States); • β-P˜Bad-Eu—murine monoclonal antibody (Cell Signaling Technology #9296B, Danvers, Mass., United States) directed against phosphoBad (Ser112) (7E11) custom-labelled by Perkin-Elmer with the reagent LANCE™ Eu-W1024.
(§3) The assay is based on Perkin-Elmer's LANCE™ technology: the Eu-labelled antibody binds to phospho-Ser112 and generates a TR-FRET signal by interaction with the APC-labelled antibody directed against His6, bound to the His6 label of Bad. The TR-FRET signal is detected using a SpectraMax M5 plate reader (Molecular Devices) with the following settings: λex=340 nm, λem1=615 nm, λem2=665 nm. The ratio of the fluorescence signal at 665 nm to the fluorescence signal at 615 nm is used as the signal reading for the IC50 (calculation is based on the 4-parameter logistic model). The assay is performed in a 384-well format; the liquid manipulations are performed using a Beckman 3000 liquid manipulations station. The test compounds are tested at 10 concentration points in duplicate; the highest compound concentration is typically equal to 30 μM. The ATP concentration is equal to 40 μM, which is equivalent to the apparent KM value.

[2] = molecular target: T2, Pim-2 (Homo sapiens, UniProt Q9P1W9); test: TR-FRET assay, Pim-2 kinase (phosphorylation of Bad Ser112); conditions: TR-FRET; ATP 40 μM; read-out: IC50 Pim2
T2 construct: His6-labelled recombinant full-length human Pim-1, Pim-2 or Pim-3 protein; His6; made in house
Procedure: as §1, §2, §3

[3] = molecular target: T3, Pim-1 (Homo sapiens, UniProt P11309); test: TR-FRET assay, Pim-1 kinase (phosphorylation of Bad Ser112); conditions: TR-FRET; ATP 40 μM; read-out: IC50 Pim1
T3 construct: His6-labelled recombinant full-length human Pim-1, Pim-2 or Pim-3 protein; His6; made in house
Procedure: as §1, §2, §3

T3 sequence (P11309 whole entry): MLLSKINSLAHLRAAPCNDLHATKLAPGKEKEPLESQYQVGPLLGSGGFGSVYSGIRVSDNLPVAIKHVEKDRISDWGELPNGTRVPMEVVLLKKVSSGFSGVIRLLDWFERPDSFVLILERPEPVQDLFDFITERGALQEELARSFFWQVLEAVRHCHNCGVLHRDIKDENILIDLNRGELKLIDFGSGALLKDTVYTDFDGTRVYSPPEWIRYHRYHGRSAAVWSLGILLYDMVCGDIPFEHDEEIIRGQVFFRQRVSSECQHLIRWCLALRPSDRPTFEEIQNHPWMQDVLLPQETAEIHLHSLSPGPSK
T2 sequence (Q9P1W9 whole entry): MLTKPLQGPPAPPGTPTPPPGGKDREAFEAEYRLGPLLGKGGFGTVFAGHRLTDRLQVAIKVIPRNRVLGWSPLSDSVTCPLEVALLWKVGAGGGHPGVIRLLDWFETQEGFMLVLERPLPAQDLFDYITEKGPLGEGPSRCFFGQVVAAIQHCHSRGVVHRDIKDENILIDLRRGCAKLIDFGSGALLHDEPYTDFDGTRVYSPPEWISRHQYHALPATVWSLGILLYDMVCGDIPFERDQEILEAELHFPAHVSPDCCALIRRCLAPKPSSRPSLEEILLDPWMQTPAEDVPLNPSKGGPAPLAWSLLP

Row | SMILES | IC50 [1] | IC50 [2] | IC50 [3]
1 | Cc1cscc1-c1c(F)cnc2[nH]c3cnc(-c4cccnc4)cc3c12 [Example 57, 3-fluoro-4-(4-methyl-thiophen-3-yl)-6-(pyrid-3-yl)-9H-pyrrolo[2,3-b:5,4-c′]-dipyridine] | 100 to 1000 nM | 1000 to 5000 nM | 1000 to 5000 nM
2 | CN(C)c1cccc(-c2c(F)cnc3[nH]c4cnc(-c5cccnc5)cc4c23)c1 [Example 58, 3-[3-fluoro-6-(pyrid-3-yl)-9H-pyrrolo[2,3-b:5,4-c′]dipyrid-4-yl]-N,N-dimethylaniline] | 1000 to 5000 nM | > 5000 nM | 1000 to 5000 nM
3 | Cn1ccc2cc(-c3c(F)cnc4[nH]c5cnc(-c6cccnc6)cc5c34)ccc21 [Example 59, 3-fluoro-4-(1-methyl-1H-indol-5-yl)-6-(pyrid-3-yl)-9H-pyrrolo[2,3-b:5,4-c′]-dipyridine] | 100 to 1000 nM | > 5000 nM | 1 to 100 nM
4 | Cn1cc(-c2c(F)cnc3[nH]c4cnc(-c5cccnc5)cc4c23)cn1 [Example 60, 3-fluoro-4-(1-methyl-1H-pyrazol-4-yl)-6-(pyrid-3-yl)-9H-pyrrolo[2,3-b:5,4-c′]-dipyridine] | 100 to 1000 nM | 1000 to 5000 nM | 1 to 100 nM
5 | CC(=O)NCc1ccc(-c2c(F)cnc3[nH]c4cnc(-c5cccnc5)cc4c23)cc1 [Example 61, N-{4-[3-fluoro-6-(pyrid-3-yl)-9H-pyrrolo[2,3-b:5,4-c′]-dipyrid-4-y]benzyl}-acetamide] | 1 to 100 nM | 1000 to 5000 nM | 1 to 100 nM
6 | CCOc1ncccc1-c1c(F)cnc2[nH]c3cnc(-c4cccnc4)cc3c12 [Example 64, 4-(2-ethoxypyrid-3-yl)-3-fluoro-6-(pyrid-3-yl)-9H-pyrrolo[2,3-b:5,4-c′]dipyridine] | 1000 to 5000 nM | > 5000 nM | 100 to 1000 nM
7 | O=C(O)CCC(=O)Nc1cccc(-c2c(F)cnc3[nH]c4cnc(-c5cccnc5)cc4c23)c1 [Example 65, acide 4-({3-[3-fluoro-6-(pyrid-3-yl)-9H-pyrrolo[2,3-b:5,4-c′]-dipyrid-4-yl]-phenyl}amino)-4-oxobutanoic acid] | 1000 to 5000 nM | > 5000 nM | 100 to 1000 nM
8 | Cn1nccc1-c1c(F)cnc2[nH]c3cnc(-c4cccnc4)cc3c12 [Example 67, 3-fluoro-4-(1-methyl-1H-pyrazol-5-yl)-6-(pyrid-3-yl)-9H-pyrrolo[2,3-b:5,4-c']-dipyridine] | 1000 to 5000 nM | > 5000 nM | 1000 to 5000 nM
9 | CC(C)C(=O)Nc1ccc(-c2c(F)cnc3[nH]c4cnc(-c5cccnc5)cc4c23)cc1 [Example 68, N-{4-[3-fluoro-6-(pyrid-3-yl)-9H-pyrrolo[2,3-b:5,4-c']-dipyrid-4-yl]phenyl}-2-methylpropanamide] | 100 to 1000 nM | 1000 to 5000 nM | 1 to 100 nM
10 | Fc1cnc2[nH]c3cnc(-c4cccnc4)cc3c2c1-c1cccnc1 [Example 69, 3-fluoro-4,6-di(pyrid-3-yl)-9H-pyrrolo[2,3-b:5,4-c′]dipyridine] | 100 to 1000 nM | > 5000 nM | 100 to 1000 nM
11 | CS(=O)(=O)Nc1ccccc1-c1c(F)cnc2[nH]c3cnc(-c4cccnc4)cc3c12 [Example 70, N-{2-[3-fluoro-6-(pyrid-3-yl)-9H-pyrrolo[2,3-b:5,4-c′]-dipyrid-4-yl]phenyl}-methanesulfonamide] | > 5000 nM | > 5000 nM | 1000 to 5000 nM
12 | Fc1cnc2[nH]c3cnc(-c4cccnc4)cc3c2c1-c1cn[nH]c1 [Example 71, 3-fluoro-4-(1H-pyrazol-4-yl)-6-(pyrid-3-yl)-9H-pyrrolo[2,3-b:5,4-c′]-dipyridine] | 100 to 1000 nM | 100 to 1000 nM | 1 to 100 nM

More lines, now with the values ahead:

Row | IC50 [1] | IC50 [2] | IC50 [3] | SMILES
13 | 1000 to 5000 nM | > 5000 nM | 100 to 1000 nM | CS(=O)(=O)c1cccc(-c2c(F)cnc3[nH]c4cnc(-c5cccnc5)cc4c23)c1 [Example 72, 3-fluoro-4-[3-(methylsulfonyl)phenyl]-6-(pyrid-3-yl)-9H-pyrrolo[2,3-b:5,4-c′]dipyridine]
14 | 1000 to 5000 nM | > 5000 nM | 100 to 1000 nM | COc1ncc(-c2c(F)cnc3[nH]c4cnc(-c5cccnc5)cc4c23)cn1 [Example 73, 3-fluoro-4-(2-methoxypyrimidin-5-yl)-6-(pyrid-3-yl)-9H-pyrrolo[2;3-b:5,4-c′]dipyridine]
15 | 100 to 1000 nM | 1000 to 5000 nM | 100 to 1000 nM | Nc1ccc(-c2c(F)cnc3[nH]c4cnc(-c5cccnc5)cc4c23)cn1 [Example 74, 5-[3-fluoro-6-(pyrid-3-yl)-9H-pyrrolo[2,3-b,-c′]dipyrid-4-yl]pyrid-2-amine]
16 | 100 to 1000 nM | 1000 to 5000 nM | 1 to 100 nM | CC(C)N1CCN(c2c(F)cnc3[nH]c4cnc(-c5cccnc5)cc4c23)CC1 [Example 75, 3-fluoro-4-[4-(propan-2-yl)-piperazin-1-yl]-6-(pyrid-3-yl)-9H-pyrrolo[2,3-b:5,4-c′]dipyridine]
17 | 1 to 100 nM | 100 to 1000 nM | 1 to 100 nM | Fc1cnc2[nH]c3cnc(-c4cccnc4)cc3c2c1N1CCCCC1 [Example 76, 3-fluoro-4-(piperid-1-yl)-6-(pyrid-3-yl)-9H-pyrrolo[2,3-b:5,4-c′]dipyridine]
18 | 100 to 1000 nM | > 5000 nM | 100 to 1000 nM | CN1CCC(N2CCN(c3c(F)cnc4[nH]c5cnc(-c6cccnc6)cc5c34)CC2)CC1 [Example 77, 3-fluoro-4-[4-(1-methylpiperid-4-yl)piperazin-1-yl]-6-(pyrid-3-yl)-9H-pyrrolo-[2,3-b:5,4-c′]-dipyridine]
19 | 100 to 1000 nM | > 5000 nM | 1 to 100 nM | Fc1cnc2[nH]c3cnc(-c4cccnc4)cc3c2c1N1CCC(N2CCOCC2)CC1 [Example 78, 3-fluoro-4-[4-(morpholin-4-yl)piperid-1-yl]-6-(pyrid-3-yl)-9H-pyrrolo[2,3-b:5,4-c′]-dipyridine]
20 | 100 to 1000 nM | > 5000 nM | 100 to 1000 nM | CN1CCCN(c2c(F)cnc3[nH]c4cnc(-c5cccnc5)cc4c23)CC1 [Example 80, 3-fluoro-4-(4-methyl-1,4-diazepan-1-yl)-6-(pyrid-3-yl)-9H-pyrrolo[2,3-b:5,4-c′]dipyridine]
21 | 100 to 1000 nM | 1000 to 5000 nM | 1 to 100 nM | OCCN1CCN(c2c(F)cnc3[nH]c4cnc(-c5cccnc5)cc4c23)CC1 [Example 81, 2-{4-[3-fluoro-6-(pyrid-3-yl)-9H-pyrrolo[2,3-b:5,4-c′]dipyrid-4-yl]piperazin-1-yl}ethanol]
22 | 100 to 1000 nM | 1000 to 5000 nM | 1 to 100 nM | CN1CCN(C2CCN(c3c(F)cnc4[nH]c5cnc(-c6cccnc6)cc5c34)CC2)CC1 [Example 82, 3-fluoro-4-[4-(4-methylpiperazin-1-yl)piperid-1-yl]-6-(pyrid-3-yl)-9H-pyrrolo-[2,3-b:5,4-c′]-dipyridine]
23 | 100 to 1000 nM | > 5000 nM | 100 to 1000 nM | Fc1cnc2[nH]c3cnc(-c4cccnc4)cc3c2c1N1CCC(N2CCCCC2)CC1 [Example 83, 4-(1.4′-bipiperid-1′-yl)-3-fluoro-6-(pyrid-3-yl)-9H-pyrrolo[2,3-b:5,4-c′]-dipyridine]
24 | 100 to 1000 nM | 1000 to 5000 nM | 100 to 1000 nM | CN(C)C1CCN(c2c(F)cnc3[nH]c4cnc(-c5cccnc5)cc4c23)CC1 [Example 84, 1-[3-fluoro-6-(pyrid-3-yl)-9H-pyrrolo[2,3-b:5,4-c′]dipyrid-4-yl]-N,N-dimethylpiperid-4-amine]
25 | 100 to 1000 nM | 1000 to 5000 nM | 1 to 100 nM | Fc1cnc2[nH]c3cnc(-c4cccnc4)cc3c2c1N1CCC(N2CCCC2)CC1 [Example 85, 3-fluoro-6-(pyrid-3-yl)-4-[4-(pyrrolidin-1-yl)piperid-1-yl]-9H-pyrrolo[2,3-b:5,4-c′]-dipyridine]
26 | 1 to 100 nM | 100 to 1000 nM | 1 to 100 nM | Fc1cnc2[nH]c3cnc(-c4cccnc4)cc3c2c1N1CCN(CCCN2CCOCC2)CC1 [Example 87, 3-fluoro-4-{4-[3-(morpholin-4-yl)propyl]piperazin-1-yl}-6-(pyrid-3-yl)-9H-pyrrolo-[2,3-b:5,4-c′]-dipyridine]
27 | 100 to 1000 nM | > 5000 nM | 100 to 1000 nM | CC(C)(N)C#Cc1c(F)cnc2[nH]c3cnc(-c4cccnc4)cc3c12 [Example 90, 4-[3-fluoro-6-(pyrid-3-yl)-9H-pyrrolo[2,3-b:5,4-c′]dipyrid-4-yl]-2-methylbut-3-yn-2-amine]
